Data from patent publication US20140357713A1, “ANTIMICROBIAL COMPOUNDS AND METHODS OF USE” (NexMed Holdings, Inc., priority 2012, published 2014).
Structures can show the parent of a compound that is named as a salt. Where two headings read alike, the source gives them in different places.

Columns and labels:
[1] = test system: Pseudomonas aeruginosa (ATCC 27853); assay: Time kill study, Example 33 (0 to 5 min); format: cell-based; conditions: 1×MIC
Summary of the method: (§1)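 Read-out: Log10 CFU/mL by colony count on agar after 24 to 48 hrs. Exposure: strain suspension and compound solution at equal volume, CLSI method, samples at 0 min, 30 sec, 1 min and 5 mins diluted in test medium before plating.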

[2] = test system: Escherichia coli (ATCC 25922); assay: Time kill study, Example 33 (0 to 5 min); format: cell-based; conditions: 1×MIC
Summary of the method: as §1

Escherichia coli = assay: Extended time kill study, Example 34 (0 to 24 h); format: cell-based
Description: Time kill studies. Strain suspensions were prepared as described above for the MIC test, and strain suspensions and compound solutions were mixed in the same volume. Samples were removed at specified times including 0 min, 30 sec, 1 min and 5 mins, were diluted in the test medium and streaked on agar. Colonies were counted after 24 to 48 hrs of incubation.
The time kill studies of Example 33 were extended for five compounds (Nex-59, Nex-60, Nex-61, Nex-62, and Nex-88) using the same methods at longer time periods and at higher multiples of MIC. Nex-88 is a code number for DDAIP.HCl from a different supplier.

[3] = test system: Pseudomonas aeruginosa (ATCC 27853); assay: Minimum inhibitory concentration (MIC) assay, Example 33; format: cell-based; conditions: Pseudomonas aeruginosa
Summary of the method: (§2)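 In CAMHB, 2-fold compound series meet bacteria from fresh isolated colonies, turbidity-adjusted to OD600 0.08-0.13 and diluted 1:100 (2× inoculum). Incubation: 35° C. Endpoint: MIC per CLSI.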

[4] = test system: Escherichia coli (ATCC 25922); assay: as above; format: cell-based; conditions: for MIC: Escherichia coli
Summary of the method: as §2

[5] = Solubility (Sol., Table 1); format: physicochemical
[6] = test system: Candida albicans (ATCC 90029); assay: Time kill study, Example 33 (0 to 5 min); format: cell-based; conditions: 1×MIC
Summary of the method: as §1

[7] = test system: Staphylococcus aureus (ATCC 29213); assay: Time kill study, Example 33 (0 to 5 min); format: cell-based; conditions: 1×MIC
Summary of the method: as §1

[8] = 1 min, listed as Nex-88, hydrochloride
[9] = ATCC27853, Table 19 summary, read-out: MIC
[10] = ATCC27853, n = 1, read-out: MIC P. aeruginosa
[11] = ATCC27853, n = 2, read-out: MIC P. aeruginosa
[12] = ATCC25922, n = 1, read-out: MIC E. coli
[13] = ATCC25922, n = 2, read-out: MIC E. coli

| Compound | Viable counts, Pseudomonas aeruginosa time kill study ([1]; 5 min) [Log10 CFU/mL] | Viable counts, Escherichia coli time kill study (Escherichia coli; 1 × MIC, 1 h) [Log10 CFU/mL] | Viable counts, Escherichia coli time kill study (Escherichia coli; 1 × MIC, 2 h) [Log10 CFU/mL] | Viable counts, Escherichia coli time kill study (Escherichia coli; 1 × MIC, 4 h) [Log10 CFU/mL] | Viable counts, Escherichia coli time kill study (Escherichia coli; 1 × MIC, 6 h) [Log10 CFU/mL] | Viable counts, Escherichia coli time kill study (Escherichia coli; 1 × MIC, 24 h) [Log10 CFU/mL] | Viable counts, Escherichia coli time kill study (Escherichia coli; 1×MIC, time 0) [Log10 CFU/mL] | Viable counts, Escherichia coli time kill study (Escherichia coli; 2 × MIC, 1 h) [Log10 CFU/mL] | Viable counts, Escherichia coli time kill study (Escherichia coli; 2 × MIC, 2 h) [Log10 CFU/mL] | Viable counts, Escherichia coli time kill study (Escherichia coli; 2 × MIC, 4 h) [Log10 CFU/mL] | Viable counts, Escherichia coli time kill study (Escherichia coli; 2 × MIC, 6 h) [Log10 CFU/mL] | Viable counts, Escherichia coli time kill study (Escherichia coli; 2 × MIC, 24 h) [Log10 CFU/mL] | Viable counts, Escherichia coli time kill study (Escherichia coli; 2 × MIC, time 0) [Log10 CFU/mL] | Viable counts, Escherichia coli time kill study (Escherichia coli; 4 × MIC, 1 h) [Log10 CFU/mL] | Viable counts, Escherichia coli time kill study (Escherichia coli; 4 × MIC, 2 h) [Log10 CFU/mL] | Viable counts, Escherichia coli time kill study (Escherichia coli; 4 × MIC, 4 h) [Log10 CFU/mL] | Viable counts, Escherichia coli time kill study (Escherichia coli; 4 × MIC, 6 h) [Log10 CFU/mL] | Viable counts, Escherichia coli time kill study (Escherichia coli; 4 × MIC, 24 h) [Log10 CFU/mL] | Viable counts, Escherichia coli time kill study (Escherichia coli; 4 × MIC, time 0) [Log10 CFU/mL] | Sol. [5] [%] | other results |
| --- | --- | --- | --- | --- | --- | --- | --- | --- | --- | --- | --- | --- | --- | --- | --- | --- | --- | --- | --- | --- | --- |
| CCCCCCCCCCCCOC(=O)C(C)N(C)C (stereo not drawn) [Nex-05, Dodecyl 2-(dimethylamino)propanoate hydrochloride] | <3.52 | <1 | <1 | <1 | <1 | <1 | 5.10 | <1 | <1 | <1 | <1 | <1 | 5.16 | <1 | <1 | <1 | <1 | <1 | 5.21 |  | Viable counts, Pseudomonas aeruginosa time kill study [1, 8]: <3.70 Log10 CFU/mL; Viable counts, Escherichia coli time kill study ([2]; 0.5 min, hydrochloride): <4.0 Log10 CFU/mL; Viable counts, Escherichia coli time kill study ([2]; 0.5 min, listed as Nex-88, hydrochloride): <4.0 Log10 CFU/mL; Viable counts, Escherichia coli time kill study [2, 8]: <3.70 Log10 CFU/mL; Viable counts, Escherichia coli time kill study ([2]; 5 min, listed as Nex-88, hydrochloride): <3.52 Log10 CFU/mL; MIC ([3]; ATCC27853, Table 19 summary): 6250 µg/mL; MIC ([3]; ATCC27853, read-out: MIC P. aeruginosa, n = 1): 6250 µg/mL; MIC ([3]; ATCC27853, read-out: MIC P. aeruginosa, n = 2): 6250 µg/mL; MIC ([4]; ATCC25922, Table 19 summary of Example 33 and Example 35): 3130 µg/mL; MIC ([4]; ATCC25922, read-out: MIC E. coli, n = 1): 3130 µg/mL; MIC ([4]; ATCC25922, read-out: MIC E. coli, n = 2): 3130 µg/mL; MIC E. coli ([4]; n = 1, listed as Nex-88, hydrochloride): 3130 µg/mL |
| CCCCCCCCCCCCOC(=O)C(C)NC.Cl (stereo not drawn) [Nex-59, Dodecyl 2-(methylamino)propanoate hydrochloride] | <3.52 | 1 | <1 | 1.85 | 2.81 | 7.91 | 5 | <1 | <1 | <1 | <1 | <1 | 5.12 | <1 | <1 | <1 | <1 | <1 | 5.04 | 33 | Viable counts, Pseudomonas aeruginosa time kill study ([1]; 0.5 min): 5.26 Log10 CFU/mL; Viable counts, Pseudomonas aeruginosa time kill study ([1]; 1 min): 4.78 Log10 CFU/mL; Viable counts, Pseudomonas aeruginosa time kill study ([1]; time 0): 5.65 Log10 CFU/mL; Viable counts, Escherichia coli time kill study ([2]; 0.5 min): 5.04 Log10 CFU/mL; Viable counts, Escherichia coli time kill study ([2]; 1 min): 5.11 Log10 CFU/mL; Viable counts, Escherichia coli time kill study ([2]; 5 min): 4.56 Log10 CFU/mL; Viable counts, Escherichia coli time kill study ([2]; time 0): 5.34 Log10 CFU/mL; Viable counts, Candida albicans time kill study ([6]; 0.5 min): 5.18 Log10 CFU/mL; Viable counts, Candida albicans time kill study ([6]; 1 min): 5.32 Log10 CFU/mL; Viable counts, Candida albicans time kill study ([6]; 5 min): 5.23 Log10 CFU/mL; Viable counts, Candida albicans time kill study ([6]; time 0): 5.3 Log10 CFU/mL; Viable counts, Staphylococcus aureus time kill study ([7]; 0.5 min): 6.33 Log10 CFU/mL; Viable counts, Staphylococcus aureus time kill study ([7]; 1 min): 6.22 Log10 CFU/mL; Viable counts, Staphylococcus aureus time kill study ([7]; 5 min): 6.15 Log10 CFU/mL; Viable counts, Staphylococcus aureus time kill study ([7]; time 0): 6.33 Log10 CFU/mL; MIC [3, 9]: 3130 µg/mL; MIC [3, 10]: 3130 µg/mL; MIC [3, 11]: 3130 µg/mL; MIC [4, 12]: 50 µg/mL; MIC [4, 13]: 50 µg/mL |
| CCCCCCCCCCCCOC(=O)C(C)NC(C)C.Cl (stereo not drawn) [Nex-60, Dodecyl 2-(isopropylamino)propanoate hydrochloride] | <3.52 | <1 | <1 | <1 | <1 | <1 | 5.02 | <1 | <1 | <1 | <1 | <1 | 5.14 | <1 | <1 | <1 | <1 | <1 | 5.07 | 46 | Viable counts, Pseudomonas aeruginosa time kill study ([1]; 0.5 min): 4.6 Log10 CFU/mL; Viable counts, Pseudomonas aeruginosa time kill study ([1]; 1 min): 3.7 Log10 CFU/mL; Viable counts, Pseudomonas aeruginosa time kill study ([1]; time 0): 5.58 Log10 CFU/mL; Viable counts, Escherichia coli time kill study ([2]; 0.5 min): <4.0 Log10 CFU/mL; Viable counts, Escherichia coli time kill study ([2]; 1 min): 3.7 Log10 CFU/mL; Viable counts, Escherichia coli time kill study ([2]; 5 min): <3.52 Log10 CFU/mL; Viable counts, Escherichia coli time kill study ([2]; time 0): 5.88 Log10 CFU/mL; Viable counts, Staphylococcus aureus time kill study ([7]; 0.5 min): 6.23 Log10 CFU/mL; Viable counts, Staphylococcus aureus time kill study ([7]; 1 min): 6.25 Log10 CFU/mL; Viable counts, Staphylococcus aureus time kill study ([7]; 5 min): 6.21 Log10 CFU/mL; Viable counts, Staphylococcus aureus time kill study ([7]; time 0): 6.28 Log10 CFU/mL; MIC [3, 9]: 6250 µg/mL; MIC [3, 10]: 6250 µg/mL; MIC [3, 11]: 6250 µg/mL; MIC ([4]; ATCC25922, Table 19 summary of Example 33 and Example 35, read-out: MIC): 3130 µg/mL; MIC [4, 12]: 3130 µg/mL; MIC [4, 13]: 3130 µg/mL |
